{"source": "patent US8349801B2", "about": "“Peptide ligands for G-protein coupled receptors” (priority 2006, dated 2013)", "key": {"[1]": {"molecular_target": "T1, MrgX1 (Homo sapiens, UniProt Q96LB2)", "T1 construct": "expressed in transfected cells; host or cells: CHO-K1 (ATCC-CCL-61), transient co-transfection", "T1 sequence (Q96LB2 whole entry)": "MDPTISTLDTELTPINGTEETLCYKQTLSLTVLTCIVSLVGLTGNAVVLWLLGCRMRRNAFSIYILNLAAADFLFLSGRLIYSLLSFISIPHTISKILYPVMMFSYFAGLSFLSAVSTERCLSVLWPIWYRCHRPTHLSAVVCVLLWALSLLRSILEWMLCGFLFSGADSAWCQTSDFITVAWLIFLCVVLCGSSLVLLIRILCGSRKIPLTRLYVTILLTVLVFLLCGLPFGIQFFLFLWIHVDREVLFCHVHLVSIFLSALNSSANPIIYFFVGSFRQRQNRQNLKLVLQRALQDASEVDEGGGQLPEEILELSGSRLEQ", "assay": "Calcium flux in CHO-K1 cells co-transfected with MrgX1 and Gα16", "type": "cell-based", "conditions": "dose response 1-3000 nM", "description": "(§1) The assay was carried out in CHO cells were transiently transfected with the GPCR of choice, by utilizing the promiscuous Gα16 to divert signaling to the Gq pathway, thus enabling readout of GPCR activation by testing for Calcium flux as described by Liu et al 2003 (Biomol Screen 8, 39-49).\n(§2) All the peptides thus obtained were tested for their ability to change calcium flux in CHO—K1 cells (ATCC-CCL-61) transiently co-transfected with an expression vector containing the GPCR of choice and expression vector containing the Gα16 encoding cDNA. Expression constructs containing cDNA clones for MrgX1, MrgX2, Mas or FPRL1 were commercially obtained in one of the following expression vectors: pcDNA3.1, pCMV6, or MO2.\nTransient transfections were performed using CHO—K1 cells as host cells. […]\nOn the day of the experiment, cells were loaded with Fluo4-NW (Invitrogen) according to the manufacturer's recommendation. Plates were loaded into a FlexStation™ (Molecular Devices) plate reader and fluorescence was monitored. Seventeen seconds following initiation of reading, cells were stimulated with the indicated agonist/compound at final concentration of 1 μM. […]\nBased on dose response experiments, EC50 best fit values were calculated by non-linear regression of sigmoidal dose-response curves, using Prism version 4 (GraphPad Software Inc., San Diego, Calif.). […]"}, "[2]": {"tested_on": "Isoproterenol induced rats", "assay": "Cardiac remodeling induced by Isoproterenol", "type": "in vivo, Wistar rats", "conditions": "isoproterenol 2 mg/kg/day s.c. 7 days; peptides 1 ug/hour/Kg osmotic minipump; Losartan 1 mg/kg once a day by gavage", "description": "The effect of the peptides […] (SEQ ID NO:10), […]-dimer ([…]) (SEQ ID […]), P33_V (SEQ ID NO:7), P33-dimer (P33_D) (SEQ ID NO:6) on cardiac remodeling, was tested by determining their effect on heart hypertrophy and fibrosis (deposition of collagen I, III, and fibronectin) induced by Isoproterenol. Losartan (an antagonist of the known angiotensin II receptor, AT1, Kucharewicz et al., 2002; Hypertension, (40): 774-779) was used as positive control. The negative control group was treated with vehicle only. Additional control groups included rats not-treated with isoproterenol which were treated with the peptides, with Losartan or with the vehicle. The analysis included determination of the left ventricle mass and morphometry. In addition, immunofuorescence analysis of fibronectin and collagens I and III deposition was performed by confocal microscopy. Animals Acclimatization: Male Wistar rats Age: 13-14 weeks (250 to 300 g) were maintained in the animal facilities for 7 days before the beginning of the experiment. The animals were exposed to a brightness circle of light-dark cycle of 12 hs (day-06:00 to 18:00; night-18:00 to 06:00), and the room temperature was kept at 23±2° C. Heart failure was induced by daily injections of isoproterenol (2 mg/kg/day, subcutaneously) during 7 days. […] Immunofluorescence-labeling and quantitative confocal microscopy was used to investigate the distribution and quantity of collagen types I, III and fibronectin present in the left ventricles. […] Optimal confocal settings (aperture, gain and laser power) were determined at the beginning of each imaging session and then held constant during the analysis of all the samples. […] For quantitative analysis of collagens I, III, and fibronectin, the ImageTool 2.0 image analysis program was used ([…].edu/[…]) to measure the fluorescence intensity in images randomly selected. […]"}, "[3]": {"molecular_target": "T2, MrgX2 (Homo sapiens, UniProt Q96LB1)", "T2 construct": "expressed in transfected cells; host or cells: CHO-K1 (ATCC-CCL-61), transient co-transfection", "T2 sequence (Q96LB1 1-330)": "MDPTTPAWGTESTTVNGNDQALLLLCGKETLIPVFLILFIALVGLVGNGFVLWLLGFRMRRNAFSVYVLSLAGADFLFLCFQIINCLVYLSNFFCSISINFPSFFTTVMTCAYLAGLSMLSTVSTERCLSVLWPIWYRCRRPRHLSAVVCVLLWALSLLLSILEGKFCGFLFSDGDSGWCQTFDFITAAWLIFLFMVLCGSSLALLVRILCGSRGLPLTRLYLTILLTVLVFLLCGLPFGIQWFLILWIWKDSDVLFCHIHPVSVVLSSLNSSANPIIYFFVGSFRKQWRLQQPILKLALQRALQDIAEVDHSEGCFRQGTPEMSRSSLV", "assay": "Calcium flux in CHO-K1 cells co-transfected with MrgX2 and Gα16", "type": "cell-based", "conditions": "for calcium flux relative to the negative control: 1 μM, about 20 to 90 seconds; for eliciting calcium flux compared to cortistatin-14: MrgX2-expressing cells, summary statement", "description": "as §1, §2\n(§3) Transient transfections were performed using CHO—K1 cells as host cells. Cells (12 million) were plated into T75 flasks on the day preceding transfection. Cells were transfected with the appropriate GPCR expression vector and with a vector expressing Gα16 using a lipid-based reagent, MTI, according to the manufacturer's recommendation. Cells were transfected for 5 hours, then re-plated into 96-well dishes (60,000 cells per well) and grown overnight.\n(§4) On the day of the experiment, cells were loaded with Fluo4-NW (Invitrogen) according to the manufacturer's recommendation. Plates were loaded into a FlexStation™ (Molecular Devices) plate reader and fluorescence was monitored. Seventeen seconds following initiation of reading, cells were stimulated with the indicated agonist/compound at final concentration of 1 μM. Each 96 well plate contained cells transfected with one GPCR expression vector and each of the examined peptides was tested in triplicate.\n(§5) We defined a hit as a peptide which elicited a clear and distinct increase in intracellular calcium that is clearly visible and statistically significant upon examination of the calcium trace for at least two repeats. The criterion for statistical significance was a p-value lower than 0.001 in a t-test comparing the levels of calcium before and after peptide addition.\n(§6) Based on dose response experiments, EC50 best fit values were calculated by non-linear regression of sigmoidal dose-response curves, using Prism version 4 (GraphPad Software Inc., San Diego, Calif.). The formulae for the sigmoidal dose-response curves was defined as Y=Bottom+(Top−Bottom)/(1+10^ (LogEC50−X)*HillSlope))\nThe ability of Peptides to change calcium flux was examined in CHO—K1 cells co-transfected with MrgX2 and Gal 6."}, "[4]": {"molecular_target": "T3, FPRL1 (Homo sapiens, UniProt P25090)", "T3 sequence (P25090 1-351)": "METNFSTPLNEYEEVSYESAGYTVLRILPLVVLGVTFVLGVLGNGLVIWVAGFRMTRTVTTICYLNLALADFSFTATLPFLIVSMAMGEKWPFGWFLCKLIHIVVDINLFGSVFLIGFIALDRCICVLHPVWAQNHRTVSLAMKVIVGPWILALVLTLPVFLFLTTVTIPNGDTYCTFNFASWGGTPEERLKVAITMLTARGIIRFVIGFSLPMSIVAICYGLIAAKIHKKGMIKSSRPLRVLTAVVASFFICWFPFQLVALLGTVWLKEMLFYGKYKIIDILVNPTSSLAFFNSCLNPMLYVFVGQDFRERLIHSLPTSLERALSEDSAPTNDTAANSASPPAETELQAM", "assay": "Calcium flux in CHO-K1 cells co-transfected with FPRL1 and Gα16", "type": "cell-based", "set-up": "expressed in transfected cells; host or cells: CHO-K1 (ATCC-CCL-61), transient co-transfection", "conditions": "for calcium flux, P58 and derivatives: dose response", "description": "as §1, §2, §3, §4, §5, §6\nThe ability of Peptides to change calcium flux was examined in CHO—K1 cells co-transfected with FPRL1 and Gal 6."}, "[5]": {"tested_on": "Zymosan-induced murine dorsal air pouch model", "type": "in vivo, mice", "conditions": "4 h; for inhibition of zymosan-induced neutrophil (GR-1+) accumulation: FACS", "description": "The anti-inflammatory activity of P58 shorter derivatives was tested in the same model of acute inflammation used in Example 6, the Zymosan-induced murine dorsal air pouch model.\nMale out-bred Swiss albino mice were purchased from Harlan, UK (T.O. strain) and maintained on a standard chow pellet diet with tap water ad libitum and a 12:00 h light/dark cycle. All animals were housed for 7 days prior to experimentation to allow body weight to reach ˜25 g on the day of the experiment.\nDrugs were stored at −20° C. and defrosted on the day of the experiment. Peptide P58 (SEQ ID NO:1) was provided lyophilized; it was taken back to room temperature and dissolved with sterile PBS before use to make an initial 1 mg/ml solution. Peptide P58-4 (SEQ ID NO:2) was provided lyophilized; it was taken back to room temperature and dissolved with sterile PBS before use to make an initial 327 μg/ml solution. Peptide P58-5 (SEQ ID NO:3) was provided lyophilized; it was taken back to room temperature and dissolved with sterile PBS before use to make an initial 476 μg/ml solution. Vehicle consisted of sterile pyrogen free PBS (Gibco, cat no. 14190-094). Once dissolved, peptides P58 (SEQ ID NO:1), P58-4 (SEQ ID NO:2) and P58-5 (SEQ ID NO:3) gave a clear solution. Drugs or vehicle were administered i.v. at a final volume of 200 μl in the doses described below.\nLavage fluids were kept all the time on ice, then used to determine the number of migrated leukocytes, by taking an aliquot (100 μl) and diluting it 1:10 in Turk's solution (0.01% crystal violet in 3% acetic acid). The samples were then vortexed and 10 μl of the stained cell solution were placed in a Neubauer haematocymometer. Differential cell count was done using a light microscope (Olympus B061). In view of their chromatic characteristics and their nucleus and cytoplasm appearance, polymorphonuclear leukocytes (PMN; >95% neutrophils) could be easily identified.\nFor FACS analyses, an aliquot of lavage fluid was stained with the PE-conjugated anti-GR-1 monoclonal antibody (1:100 dilution, eBiosciences; Cat 11-5931) to mark polymorphonuclear leukocytes. Staining was performed at 4° C. Flow cytometry was performed using FACScan analyser (Becton Dickinson, Cowley, UK) with air-cooled 100 mW argon laser tuned to 488 nm connected to an Apple Macintosh G3 computer running Cell Quest II software. Forward and sidescatter characteristics were initially used to distinguish between the three distinct cell populations (lymphocytes, monocytes and granulocytes). Cells positive for GR-1 were detected in the FL2 channel (wavelength of 548 nm). Data are expressed as percentage of positive cells (in relation to the specific mAb). Determination of positive and negative populations was performed based on the control staining with irrelevant IgG isotype (rat IgG2b) labelled with PE. Once determined, quadrants were rigorously maintained for all analyses.\nData are shown for single mice, and also shown as mean±S.E. of (n) mice per group. Statistical differences were determined by ANOVA, plus Student Newman Keuls test. A P value<0.05 was taken as significant."}}, "note": "Like-named read-outs stand apart in the source and are kept apart here. No end group written: not given here.", "data": [{"compound": "CSCC[C@H](NC(=O)[C@H](Cc1ccccc1)NC(=O)CNC(=O)CNC(=O)[C@@H](N)Cc1ccc(O)cc1)C(=O)N[C@@H](CCCNC(=N)N)C(=O)N[C@@H](CCCNC(=N)N)C(=O)N[C@H](C(=O)NCC(=O)N[C@@H](CCCNC(=N)N)C(=O)N1CCC[C@H]1C(=O)N[C@@H](CCC(=O)O)C(=O)N[C@@H](Cc1c[nH]c2ccccc12)C(=O)N[C@@H](Cc1c[nH]c2ccccc12)C(=O)N[C@@H](CCSC)C(=O)N[C@@H](CC(=O)O)C(=O)N[C@@H](Cc1ccc(O)cc1)C(=O)N[C@@H](CCC(N)=O)C(=O)N[C@@H](CCCCN)C(=O)N[C@@H](CCCNC(=N)N)C(=O)N[C@@H](Cc1ccc(O)cc1)C(=O)NCC(=O)O)C(C)C", "note": "[BAM22, reference compound]", "values": [{"measurement": "EC50", "setting": "[1]", "result": "≥ 0.05", "unit": "µM"}]}, {"compound": "CCCCc1nc(Cl)c(CO)n1Cc1ccc(-c2ccccc2-c2nn[nH]n2)cc1", "note": "[Losartan, reference compound]", "values": [{"measurement": "effect on Isoproterenol induced raise in the left ventricle to body mass ratio (LV/BW)", "setting": "[2]", "result": "did not have an effect"}]}, {"compound": "AAQATGPLQDNELPGLDERPPRAHAQHFHKHQLWPSPFRALKPRP (listed as Homo sapiens) [Peptide P94]", "values": [{"measurement": "calcium flux relative to the negative control", "setting": "[3]", "result": "increased calcium flux"}, {"measurement": "eliciting calcium flux compared to cortistatin-14", "setting": "[3]", "result": "superior to cortistatin-14"}, {"measurement": "calcium flux relative to the negative control", "setting": "[4]; 1 μM, three wells, about 20 to 90 seconds", "result": "increased calcium flux"}]}, {"compound": "AHAQHFHKHQLWPSPFRALKPRP (listed as Homo sapiens) [Peptide 63]", "values": [{"measurement": "calcium flux relative to the negative control", "setting": "[3]", "result": "increased calcium flux"}, {"measurement": "eliciting calcium flux compared to cortistatin-14", "setting": "[3]", "result": "superior to cortistatin-14"}]}, {"compound": "FTSWFM-amide (FTSWFM-NH2; listed as Homo sapiens) [P58—4]", "values": [{"measurement": "inhibition of leukocyte accumulation triggered by zymosan A", "setting": "[5]; 20 nmole/mouse i.v.", "result": 35, "unit": "%"}, {"measurement": "inhibition of leukocyte accumulation triggered by zymosan A", "setting": "[5]; 80 nmole/mouse i.v.", "result": 47, "unit": "%"}, {"measurement": "inhibition of zymosan-induced neutrophil (GR-1+) accumulation", "setting": "[5]; 80 nmole/mouse i.v.", "result": 49, "unit": "%"}, {"measurement": "calcium flux, P58 and derivatives", "setting": "[4]", "result": "elicited calcium flux"}]}, {"compound": "GIGSVWHWKHRVATRFTLPRFLQ [Peptide P60_S]", "values": [{"measurement": "EC50", "setting": "[1]", "result": "≥ 0.3", "unit": "µM"}]}, {"compound": "LQKFTSWFM-amide (LQKFTSWFM-NH2; listed as Homo sapiens) [P58—5]", "values": [{"measurement": "inhibition of leukocyte accumulation triggered by zymosan A", "setting": "[5]; 20 nmole/mouse i.v.", "result": "did not inhibit leukocyte migration"}, {"measurement": "inhibition of zymosan-induced neutrophil (GR-1+) accumulation", "setting": "[5]; 20 nmole/mouse i.v.", "result": "weak effect"}, {"measurement": "inhibition of leukocyte accumulation triggered by zymosan A", "setting": "[5]; 80 nmole/mouse i.v.", "result": 29, "unit": "%"}, {"measurement": "calcium flux, P58 and derivatives", "setting": "[4]", "result": "elicited calcium flux"}]}]}
